For assay [1], the target named is Indoleamine 2,3-dioxygenase 1 (Homo sapiens, UniProt P14902). Nature of the assay: Inhibition of IDO1 in HEK293 cells. In kind it is cell-based.
Assay [2] concerns Bel-7402. Nature of the assay: Antiproliferative activity against human Bel-7402 cells assessed as inhibition of cell growth measured after 48 hrs by CCK-8 assay. In kind it is functional, cell-based. The following applies: Bel-7402, 48 h. (In general: Formazan colour is commonly taken as a measure of viable cells.)
Assay [3] relates to Hs-578T. As to the kind of experiment: Cytotoxicity against human Hs-578T cells assessed as cell growth inhibition. In kind it is functional, cell-based.
For assay [4], the system named is A-375. As to the kind of experiment: Cytotoxicity against human A-375 cells assessed as inhibition of cell growth by MTT based colorimetric analysis. In kind it is functional.
Assay [5] deals with HL-60. As to the kind of experiment: Antiproliferative activity against human HL-60 cells assessed as reduction in cell viability incubated for 72 hrs by MTT assay. In kind it is functional, cell-based. The following applies: HL-60, 72 h.
Assay [6] has as its system HCT-116. As to the kind of experiment: Cytotoxicity against human HCT-116 cells assessed as inhibition of cell growth by MTT based colorimetric analysis. In kind it is functional.
In assay [7] the test system is HepG2. Nature of the assay: Cytotoxicity against human HepG2 cells assessed as inhibition of cell growth by MTT based colorimetric analysis. In kind it is functional.
In assay [8] the test system is A549. Nature of the assay: Antiproliferative activity against human A549 cells assessed as reduction in cell growth in presence of doxorubicin by CellTiter-Glo luminescent assay. In kind it is functional, cell-based.
The test system of assay [9] is P388. Nature of the assay: Cytotoxicity against mouse P388 cells assessed as reduction in cell viability by SRB assay. In kind it is functional. The following applies: read-out: ED50 (the source's name). Background: In SRB staining, fixed cells bind dye roughly in proportion to their protein.
The test system of assay [10] is HT-29. As to the kind of experiment: Cytotoxicity against human HT-29 cells assessed as cell growth inhibition by MTT assay. In kind it is functional, cell-based.
Assay [11] has as its system SW-620. Nature of the assay: Growth inhibition of human SW620 cells. In kind it is functional.
For assay [12], the system named is K562. As to the kind of experiment: Cytotoxicity against human K562 cells assessed reduction in cell growth incubated for 48 hrs by MTT assay. In kind it is functional, cell-based. The following applies: K562, 48 h.
Assay [13] concerns NCI-H522. Nature of the assay: Growth inhibition of human NCI-H522 cells. In kind it is functional.
A short description of assay [14]: Antiproliferative activity against human LA-N-1 cells assessed as cell growth inhibition. In kind it is functional, cell-based. The following applies: LAN1.
The test system of assay [15] is U-251. As to the kind of experiment: Growth inhibition of human U-251 cells. In kind it is functional.
The test system of assay [16] is NCI/ADR-RES. Nature of the assay: Growth inhibition of human MCF7ADR cells. In kind it is functional.
Assay [17] concerns A-431. As to the kind of experiment: Anticancer activity against human A-431 cells assessed as reduction of cell viability incubated for 48 hrs by MTT assay. In kind it is functional, cell-based. The following applies: A-431, 48 h.
Assay [18] concerns M14. As to the kind of experiment: Growth inhibition of human M14 cells. In kind it is functional.
Assay [19] has as its system A498. Nature of the assay: Growth inhibition of human A498 cells by SRB method. In kind it is functional.
In assay [20] the test system is SH-SY5Y. As to the kind of experiment: Cytotoxicity against human SH-SY5Y cells assessed as reduction in cell viability. In kind it is functional, cell-based.
The subject of assay [21] is SK-N-DZ. Nature of the assay: Anticancer activity against human SK-N-DZ cells assessed as cell growth inhibition measured after 72 hrs by DAPI staining based analysis. In kind it is functional.
For assay [22], the system named is U-937. Nature of the assay: Cytotoxicity against human U-937 cells assessed reduction in cell growth incubated for 48 hrs by MTT assay. The following applies: U-937, 48 h. In kind it is functional, cell-based.
Assay [23] concerns DU-145. As to the kind of experiment: Growth inhibition of human DU-145 cells by sulforhodamine B assay. In kind it is functional.
Assay [24] concerns SK-OV-3. As to the kind of experiment: Growth inhibition of human SK-OV-3 cells by sulforhodamine B assay. In kind it is functional.
Assay [25] concerns DU-145. As to the kind of experiment: Growth inhibition of human DU-145 cells incubated for 24 hrs by sulforhodamine B assay. In kind it is functional.
In assay [26] the test system is P388. Nature of the assay: Antiproliferative activity against mouse P388 cells assessed as reduction in cell proliferation incubated for 48 hrs by MTT assay. In kind it is functional, cell-based. The following applies: P388, 48 h.
Assay [27] relates to HT-29. As to the kind of experiment: Antiproliferative activity against human HT-29 cells assessed as reduction in cell viability after 72 hrs by MTT assay. In kind it is functional, cell-based. The following applies: HT-29, 72 h.
The subject of assay [28] is PC-3. As to the kind of experiment: Cytotoxicity against human PC-3 cells assessed as inhibition of cell growth. In kind it is functional, cell-based.
The test system of assay [29] is NCI-N87. As to the kind of experiment: Cytotoxicity against human NCI-N87 cells. In kind it is functional, cell-based.
Assay [30] relates to MCF7. As to the kind of experiment: Antiproliferative activity against human MCF7 cells assessed as cell growth inhibition incubated for 72 hrs by MTT assay. The following applies: MCF7, 72 h. In kind it is functional, cell-based.
The subject of assay [31] is NCI/ADR-RES. As to the kind of experiment: Antiproliferative activity against human MCF7ADR cells assessed as cell growth inhibition incubated for 72 hrs by MTT assay. In kind it is functional, cell-based.
The test system of assay [32] is NCI-H1650. Nature of the assay: Antiproliferative activity against human NCI-H1650 cells assessed as cell growth inhibition incubated for 72 hrs by MTT assay. In kind it is functional, cell-based. The following applies: NCI-H1650, 72 h.
The subject of assay [33] is NCI-H1975. As to the kind of experiment: Antiproliferative activity against human NCI-H1975 cells assessed as cell growth inhibition incubated for 72 hrs by MTT assay. The following applies: NCI-H1975, 72 h. In kind it is functional, cell-based.
Assay [34] relates to OVCAR-4. As to the kind of experiment: Cytotoxicity against human OVCAR-4 cells assessed as cell growth inhibition. In kind it is functional.
Assay [35] has as its system HL-60. Nature of the assay: Cytotoxicity against human HL-60 cells assessed as cell growth inhibition by MTT assay. In kind it is functional.
Assay [36] deals with A549. Nature of the assay: Cytotoxicity against human A549 cells assessed as reduction in cell viability incubated for 72 hrs by MTT assay. In kind it is functional, cell-based. The following applies: A549, 72 h.

The structures appear in SMILES notation. ≈ marks a conversion by molar mass, not a printed value.

Our source for the IC50, EC50 and GI50 values is ChEMBL document CHEMBL5385851, “Natural quinazolinones: From a treasure house to promising anticancer leads” (Eur J Med Chem, 2023).

Chain of Indoleamine 2,3-dioxygenase 1 (P14902 whole entry): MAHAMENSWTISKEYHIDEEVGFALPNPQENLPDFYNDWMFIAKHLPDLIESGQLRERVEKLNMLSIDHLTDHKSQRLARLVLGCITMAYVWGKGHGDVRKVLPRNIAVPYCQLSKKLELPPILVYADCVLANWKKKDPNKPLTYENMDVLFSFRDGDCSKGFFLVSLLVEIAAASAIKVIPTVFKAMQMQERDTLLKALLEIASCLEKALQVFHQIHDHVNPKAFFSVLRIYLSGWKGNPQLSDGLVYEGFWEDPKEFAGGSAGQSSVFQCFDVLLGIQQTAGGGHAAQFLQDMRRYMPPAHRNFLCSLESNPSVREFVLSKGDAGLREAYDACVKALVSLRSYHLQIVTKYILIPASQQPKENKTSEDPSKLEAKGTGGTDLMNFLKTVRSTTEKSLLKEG

For orientation: IC50 means the concentration at which inhibition is half-maximal. For `O=C1c2ccccc2N[C@H]2[C@H](O)C3C=C(F)C=CC3N12` (stereo partly specified), half-maximal inhibition in [1] (IC50) was put at 24.3 nM.
Consider `CC(C)/C=C1\NC(=O)[C@H](CCC(N)=O)n2c1nc1ccccc1c2=O` [AURANTIOMIDE C], for which the IC50 in assay [2] amounted to 62 µg/mL (≈ 182 µM).
In the case of `COC1c2cc3ccccc3nc2-c2nc3ccccc3c(=O)n21` (stereo unspecified), in assay [3], the half-maximal inhibitory concentration (IC50) is 9 µg/mL (≈ 28.5 µM).
With `CC(C)C[C@H]1NC(=O)[C@@H](C[C@]2(O)c3ccccc3N3C(=O)C(C)(C)N[C@H]32)n2c1nc1ccccc1c2=O`, the IC50 in [4] stood at 75 µM; in [5], 52 µg/mL (≈ 104 µM); in assay [6], 86 µM; in assay [7], 24 µM; in assay [8], 540 nM.
Turning to `COc1cccc2c(=O)n3ccc4c5ccccc5[nH]c4c3nc12`, in assay [9], the EC50 worked out at 12.3 µM. For the same compound, the IC50 in assay [10] amounted to 27.1 µM.
By GI50 is commonly meant the concentration at which growth is held to half of that of the control. As for `O=C1c2ccccc2-n2c1nc1ccccc1c2=O` [TRYPTANTHRIN], the GI50 in assay [11] was 5 µM; in assay [13], 15 µM; in [15] it was 100 µM; in [16], 30 µM; in assay [18], 15 µM; in assay [19], 950 nM. The GI50 stood at 400 nM in assay [23] and 2500 nM in assay [24]. In addition, the IC50 in assay [12] stood at 6.3 µg/mL (≈ 25.4 µM); in assay [14] it was 15.8 µM; in assay [17], 9 µM; in [20], 22 µM; in assay [21], 14 µM; in [22], 3.1 µg/mL (≈ 12.5 µM).
In turn, `C[S+]([O-])c1ccc2[nH]c3c(c2c1)CCN1C(=O)c2ccccc2NC31` (stereo unspecified) came in with a GI50 in assay [25] of 100 nM.
Take `O=c1c2cccc(O)c2nc2n1CCc1c-2[nH]c2ccccc12`: the IC50 in assay [26] was 12.4 µM; in assay [27], 24.7 µM.
For the compound `O=c1c2ccc(O)cc2nc2c3[nH]c4ccccc4c3ccn12`, the IC50 amounted to 17.4 µM in assay [28] and 27.9 µM in assay [29].
On to `CN1c2ccccc2C(=O)N2CCc3c([nH]c4ccccc34)C21` (stereo unspecified), for which the IC50 in assay [30] came out at 300 nM; in assay [31], 470 nM; in [32], 4.53 µM; in assay [33] it was 5.59 µM.
Consider `O=c1c2cc(Cl)ccc2nc2n1CCc1c-2[nH]c2ccccc12`, for which the GI50 in assay [34] came to 1500 nM.
Consider `O=c1c2ccccc2nc2n1CCc1c-2[nH]c2c(Cl)c(Cl)ccc12`, for which, in [35], the GI50 amounted to 150 nM.
Regarding `O=c1c2ccccc2nc2n1C(O)c1cc3ccccc3nc1-2` (stereo unspecified), the IC50 in assay [36] turned out to be 9 µg/mL (≈ 29.9 µM).
